Data: ChEMBL document CHEMBL1145293, “Synthesis and SAR of GlyT1 inhibitors derived from a series of N-((4-(morpholine-4-carbonyl)-1-(propylsulfonyl)piperidin-4-yl)methyl)benzamides” (Bioorg Med Chem Lett, 2006)

How the values were obtained:
[1] = molecular target: Cytochrome P450 2C9 (Homo sapiens, UniProt P11712); assay: Inhibition of CYP2C9; assay type: ADME
[2] = molecular target: T1, Sodium- and chloride-dependent glycine transporter 1 (Homo sapiens, UniProt P48067); assay: Inhibition of human GlyT1
T1 sequence (P48067 whole entry): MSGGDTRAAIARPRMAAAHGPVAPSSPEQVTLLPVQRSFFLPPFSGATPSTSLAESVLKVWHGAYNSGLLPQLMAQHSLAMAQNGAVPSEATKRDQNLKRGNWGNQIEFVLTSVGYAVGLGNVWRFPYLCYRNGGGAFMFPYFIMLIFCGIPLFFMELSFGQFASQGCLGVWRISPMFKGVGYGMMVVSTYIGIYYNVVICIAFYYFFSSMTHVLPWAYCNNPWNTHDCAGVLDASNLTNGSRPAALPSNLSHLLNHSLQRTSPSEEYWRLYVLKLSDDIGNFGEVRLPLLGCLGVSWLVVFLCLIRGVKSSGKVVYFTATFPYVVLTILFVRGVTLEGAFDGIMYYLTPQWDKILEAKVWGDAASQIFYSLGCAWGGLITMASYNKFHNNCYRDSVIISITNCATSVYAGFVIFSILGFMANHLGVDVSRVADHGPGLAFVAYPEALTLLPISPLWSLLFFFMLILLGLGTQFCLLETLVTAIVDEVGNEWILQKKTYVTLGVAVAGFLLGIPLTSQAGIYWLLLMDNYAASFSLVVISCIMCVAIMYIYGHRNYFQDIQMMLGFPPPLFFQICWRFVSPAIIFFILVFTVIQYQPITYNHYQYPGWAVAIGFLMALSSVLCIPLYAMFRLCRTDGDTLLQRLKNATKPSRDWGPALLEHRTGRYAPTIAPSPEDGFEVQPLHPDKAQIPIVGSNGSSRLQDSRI

[3] = Apparent permeability in Caco-2 cells; assay type: ADME, cell-based; settings: human

Chain of Cytochrome P450 2C9 (P11712 whole entry): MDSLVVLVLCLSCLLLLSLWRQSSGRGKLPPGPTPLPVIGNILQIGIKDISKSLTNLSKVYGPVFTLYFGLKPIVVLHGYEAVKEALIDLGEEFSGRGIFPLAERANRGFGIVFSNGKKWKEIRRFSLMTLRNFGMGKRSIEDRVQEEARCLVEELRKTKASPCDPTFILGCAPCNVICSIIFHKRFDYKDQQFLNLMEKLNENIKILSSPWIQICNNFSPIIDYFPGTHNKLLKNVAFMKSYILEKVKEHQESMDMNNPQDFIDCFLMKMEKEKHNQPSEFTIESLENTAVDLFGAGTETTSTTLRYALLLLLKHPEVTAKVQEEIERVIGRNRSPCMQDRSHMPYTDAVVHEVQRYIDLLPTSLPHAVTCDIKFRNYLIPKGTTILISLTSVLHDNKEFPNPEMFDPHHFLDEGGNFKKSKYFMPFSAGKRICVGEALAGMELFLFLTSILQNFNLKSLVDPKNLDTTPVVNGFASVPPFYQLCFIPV

Structure (SMILES) | Activity [1] | IC50 [2] [nM] | Papp [3] [×10⁻⁶ cm/s]
CCCS(=O)(=O)N1CCC(CNC(=O)c2cc(F)c(Cl)cc2Cl)(C(=O)N2CCOCC2)CC1 | Not Active | 6.3 | > 22
CCCS(=O)(=O)N1CCC(CNC(=O)c2ccc(Cl)cc2Cl)(C(=O)N2CCOCC2)CC1 | Not Active | 2.4 | 23.6
CCCS(=O)(=O)N1CCC(CNC(=O)c2ccc(F)cc2Cl)(C(=O)N2CCOCC2)CC1 | Not Active | 12.6 | > 22
CCCS(=O)(=O)N1CCC(CNC(=O)c2c(F)cccc2Cl)(C(=O)N2CCOCC2)CC1 | Not Active | 12.5 | > 22
CCCS(=O)(=O)N1CCC(CNC(=O)c2ccccc2Cl)(C(=O)N2CCOCC2)CC1 | Not Active | 9.7 | > 22
CCCS(=O)(=O)N1CCC(CNC(=O)c2c(F)ccc(Cl)c2F)(C(=O)N2CCOCC2)CC1 | Not Active | 8.4 | > 22
